Like-named read-outs stand apart in the source and are kept apart here.
Columns and labels:
[1] = biological target: T1, LXRα (Homo sapiens, UniProt Q13133); experiment: Gal4-hybrid reporter gene assay LXRα in HEK293T cells; format: cell-based; conditions: 10 μM; printed as both LXR subtypes
T1 construct: pFA-CMV-hLXRα-LBD; expressed in transfected cells; host or cells: HEK293T
T1 sequence (Q13133 209-447 limits assumed): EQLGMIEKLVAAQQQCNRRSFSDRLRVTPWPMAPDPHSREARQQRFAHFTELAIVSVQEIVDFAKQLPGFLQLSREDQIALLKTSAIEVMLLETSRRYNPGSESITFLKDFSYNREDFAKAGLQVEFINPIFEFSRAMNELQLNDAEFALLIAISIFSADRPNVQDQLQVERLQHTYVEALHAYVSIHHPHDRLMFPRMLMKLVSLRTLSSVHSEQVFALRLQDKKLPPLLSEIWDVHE
Text: (§1) Hybrid reporter gene assays for PPARα/γ/δ, LXRα/β, RXRα/β/γ, RARα/β/γ, VDR and PXR Plasmids: The Gal4-fusion receptor plasmids pFA-CMV-hPPARα-LBD^52, pFA-CMV-hPPARγ-LBD^52, pFA-CMV-hPPARδ-LBD^52, pFA-CMV-hLXRα-LBD^32 and pFA-CMV-hLXRβ-LBD^32 have been reported previously. […] Frame and sequence of all fusion receptors were verified by sequencing. pFR-Luc (Stratagene) was used as reporter plasmid and pRL-SV40 (Promega) for normalization of transfection efficiency and cell growth.
(§2) Assay procedure: HEK293T cells were grown in DMEM high glucose, supplemented with 10% FCS, sodium pyruvate (1 mM), penicillin (100 U/mL) and streptomycin (100 μg/mL) at 37° C. and 5% CO2. The day before transfection, HEK293T cells were seeded in 96-well plates (2.5·10^4 cells/well). Before transfection, medium was changed to Opti-MEM without supplements. Transient transfection was carried out using Lipofectamine LTX reagent (Invitrogen) according to the manufacturer's protocol with pFR-Luc (Stratagene), pRL-SV40 (Promega) and pFA-CMV-hRXRα-LBD. 5 h after transfection, medium was changed to Opti-MEM supplemented with penicillin (100 U/mL), streptomycin (100 μg/mL), now additionally containing 0.1% DMSO and the respective test compound or 0.1% DMSO alone as untreated control. […] Luminescence was measured with an Infinite M200 luminometer (Tecan Deutschland GmbH). […]

[2] = test system: FXR target genes
Method: Data was analyzed according to the 2^ΔΔCt method and all results were normalized to the values of the house-keeping gene glycerinaldehyde 3-phosphate dehydrogenase (GAPDH). Gene expression of vehicle treated control cells was defined as 100%.
Two micrograms of total RNA were extracted from HepG2 cells by the Total RNA Mini Kit (R6834-02, Omega Bio-Tek, Inc., Norcross, Ga., USA). […] FXR target gene expression was evaluated by quantitative real time PCR analysis with a StepOnePlus™ System (Life Technologies, Carlsbad, Calif., USA) using PowerSYBRGreen (Life Technologies; 12.5 μL per well). The primers are listed in the supporting information. Each sample was set up in duplicates and repeated in at least three independent experiments. The expression was quantified by the comparative ΔΔCt method and glycerinaldehyde 3-phosphate dehydrogenase (GAPDH) served as reference gene.

[3] = test system: related nuclear receptors (PPARs, LXRs, RXRs, RARs, PXR and VDR); experiment: selectivity profile in Gal4-hybrid reporter gene assays (panel statement); format: cell-based, human; conditions: except PPARγ
Text: as §1, §2

[4] = test system: FXR target genes; experiment: FXR target gene mRNA quantification from mouse livers; format: in vivo; conditions: 10 mg/kg p.o., 8 h post dose
Method: Three additional animals served as vehicle control.
A part of the blood was centrifuged (6000 rpm, 10 min, +4° C.) to obtain plasma for quantification of EET/DHET ratio and stored at −80° C. until further evaluation. For liver collection, mice were sacrificed by cervical dislocation after the last blood sampling (8 h post dose). Complete liver was immediately snap-frozen and stored at −80° C. until further evaluation. Plasma and liver were equally obtained from three control mice which received oral application of the vehicle (1% HPMC/Tween 80 (99:1)).
Quantification of FXR target gene mRNA from mouse livers: Hepatocyte isolation of mouse liver tissue for RT-qPCR: To homogenize the liver samples, one third of each liver was placed on one Falcon™ Cell Strainer with 40 μm pore size (BD Bioscience, Erembodegem, Belgium) in a 50 mL Falcon tube. Every tissue was rinsed with PBS buffer containing 10% FCS and 1% PenStrep and pressed through the cell strainer until 5 mL cell suspension had been collected. The samples were centrifuged at 1200 rpm for to min at 4° C. The supernatant was discarded and the pellets were washed with 5 mL cold PBS buffer and again centrifuged at 1200 rpm for 10 min at 4° C. After discarding the supernatant, the cell pellets were re-suspended in 1 mL PBS and total RNA was extracted using the E. Z. A. Total RNA Kit I (Omega bio-tek Inc., Narcoss, Ga., USA) following the Animal Tissue Protocol. The extracted RNA was used for qRT-PCR and equally treated as described for mRNA quantification from HepG2 cells (see above). PCR primers for the murine genes are listed in the supporting information.

[5] = test system: PPARγ target genes CD36 and FAM3A; experiment: PPARγ target gene mRNA quantification (qRT-PCR) in HepG2 cells; format: cell-based; conditions: HepG2, 1 μM

CC(C)(C)c1ccc(C(=O)NCc2ccc(NS(C)(=O)=O)cc2Cl)cc1 [compound 57, 4-(tert-Butyl)-N-(2-chloro-4-(methylsulfonamido)benzyl)benzamide]
activity on LXRα [1]: inactive | BSEP mRNA expression compared to vehicle set as 100% ([2]; HepG2, 0.1 μM, 8 or 16 h): 216±18% | FABP1 mRNA expression compared to vehicle set as 100% ([2]; HepG2, 0.1 μM, 8 or 16 h): 183±34% | FAS mRNA expression compared to vehicle set as 100% ([2]; HepG2, 0.1 μM, 8 or 16 h): 22±8% | FGF19 mRNA expression compared to vehicle set as 100% ([2]; HepG2, 0.1 μM, 8 or 16 h): 309±101% | PDK4 mRNA expression compared to vehicle set as 100% ([2]; HepG2, 0.1 μM, 8 or 16 h): 255±54% | PPARα mRNA expression compared to vehicle set as 100% ([2]; HepG2, 0.1 μM, 8 or 16 h): 170±11% | SHP mRNA expression compared to vehicle set as 100% ([2]; HepG2, 0.1 μM, 8 or 16 h): 242±61% | SREBP1c mRNA expression compared to vehicle set as 100% ([2]; HepG2, 0.1 μM, 8 or 16 h): 49±17% | BSEP mRNA expression compared to vehicle set as 100% ([2]; HepG2, 1 μM, 8 or 16 h): 222±20% | FABP1 mRNA expression compared to vehicle set as 100% ([2]; HepG2, 1 μM, 8 or 16 h): 194±42% | FGF19 mRNA expression compared to vehicle set as 100% ([2]; HepG2, 1 μM, 8 or 16 h): 325±77% | PDK4 mRNA expression compared to vehicle set as 100% ([2]; HepG2, 1 μM, 8 or 16 h): 226±57% | PPARα mRNA expression compared to vehicle set as 100% ([2]; HepG2, 1 μM, 8 or 16 h): 211±10% | SHP mRNA expression compared to vehicle set as 100% ([2]; HepG2, 1 μM, 8 or 16 h): 317±78% | amplitude of induction of SHP, PPARα, FGF19, PDK4 and FABP1 relative to CDCA (1b) ([2]; HepG2, % of CDCA (1b) at 50 μM): 50-80% | activity on related nuclear receptors [3]: inactive | increased expression of BSEP in mouse liver [4]: approx. 3 fold | increased expression of FGF15 in mouse liver [4]: approx. 2.5 fold | increased expression of SHP in mouse liver [4]: approx. 4 fold | reduced SREBP1c levels in mouse liver [4]: approx. 5 fold | SREBP1c mRNA in mouse liver compared to vehicle set as 100% ([4]; vehicle 82±14): 17±10% | BSEP mRNA in mouse liver compared to vehicle set as 100% ([4]; vehicle 105±24): 312±103% | SHP mRNA in mouse liver compared to vehicle set as 100% ([4]; vehicle 108+29): 410±147% | FGF15 mRNA in mouse liver compared to vehicle set as 100% ([4]; vehicle 119±15): 254±9% | CD36 mRNA expression compared to vehicle set as 100% [5]: 119±33% | FAM3A mRNA expression compared to vehicle set as 100% [5]: 112±12%

— patent US20200172473A1, “DUAL MODULATORS OF FARNESOID X RECEPTOR AND SOLUBLE EPOXIDE HYDROLASE” (JOHANN WOLFGANG GOETHE-UNIVERSITÄT FRANKFURT AM MAIN, priority 2017, published 2020)
